pIC50: −log10 of the molar value.
Biological target: recombinant HCV NS5B (Hepatitis C virus genotype 1b, UniProt P26663)
Assay: biochemical
Details: flashplate, polyrA/biotinylated-oligo dT, 100 nM NS5B, 2 hrs at room temperature; read-out: RNA pol Assay 2 IC50 (μm)

recombinant HCV NS5B, sequence (P26663 2420-3010 limits assumed): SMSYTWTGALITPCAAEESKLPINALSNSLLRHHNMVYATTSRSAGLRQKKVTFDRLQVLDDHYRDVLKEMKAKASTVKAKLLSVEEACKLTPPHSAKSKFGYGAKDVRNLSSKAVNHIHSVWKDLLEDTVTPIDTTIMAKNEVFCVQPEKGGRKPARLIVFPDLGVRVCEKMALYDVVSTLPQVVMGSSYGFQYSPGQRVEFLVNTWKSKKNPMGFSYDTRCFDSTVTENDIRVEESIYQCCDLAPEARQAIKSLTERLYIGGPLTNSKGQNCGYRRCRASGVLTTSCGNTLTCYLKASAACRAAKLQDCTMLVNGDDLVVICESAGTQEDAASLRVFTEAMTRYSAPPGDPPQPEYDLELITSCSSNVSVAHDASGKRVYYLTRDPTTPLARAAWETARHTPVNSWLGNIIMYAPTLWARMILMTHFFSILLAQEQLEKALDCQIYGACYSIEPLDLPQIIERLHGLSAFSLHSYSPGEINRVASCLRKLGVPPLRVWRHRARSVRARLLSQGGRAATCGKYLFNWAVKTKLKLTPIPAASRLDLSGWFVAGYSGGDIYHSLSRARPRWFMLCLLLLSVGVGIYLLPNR

O=C(O)[C@H](Cc1ccccc1)N(C(=O)c1ccc(Cl)cc1Cl)c1ccc(Br)cc1 [compound #191, 2-[(4-Bromo-phenyl)-(2,4-dichloro-benzoyl)-amino]-3-phenyl-propionic acid]
pIC50: < 4.70
